From ChEMBL document CHEMBL5625206, “Design, synthesis, and evaluation of novel pleuromutilin aryl acrylate derivatives as promising broad-spectrum antibiotics especially for combatting multi-drug resistant gram-negative bacteria” (Eur J Med Chem, 2023)
≈ marks a conversion by molar mass, not a printed value. Calls of active or inactive are those of the source. The calls are words filed in the database; no cut-off is given here.

Tests used:
[1] = system: Staphylococcus epidermidis; experiment: Antibacterial activity against Staphylococcus epidermidis ATCC 12228 assessed as bacterial growth inhibition incubated for 24 hrs by CLSI based broth microdilution method; assay type: functional
[2] = system: Staphylococcus aureus; experiment: Antibacterial activity against Staphylococcus aureus ATCC 25923 assessed as bacterial growth inhibition incubated for 24 hrs by CLSI based broth microdilution method; assay type: functional
[3] = system: Staphylococcus aureus; experiment: Antibacterial activity against Staphylococcus aureus ATCC 29213 assessed as bacterial growth inhibition incubated for 24 hrs by CLSI based broth microdilution method; assay type: functional
[4] = system: Staphylococcus aureus; experiment: Antibacterial activity against methicillin-resistant Staphylococcus aureus ATCC 33591 assessed as bacterial growth inhibition incubated for 24 hrs by CLSI based broth microdilution method; assay type: functional
[5] = system: Escherichia coli; experiment: Antibacterial activity against Escherichia coli ATCC 25922 assessed as bacterial growth inhibition incubated for 24 hrs by CLSI based broth microdilution method; assay type: functional
[6] = system: Acinetobacter baumannii; experiment: Antibacterial activity against Acinetobacter baumannii ATCC 19606 assessed as bacterial growth inhibition incubated for 24 hrs by CLSI based broth microdilution method; assay type: functional
[7] = system: Staphylococcus aureus; experiment: Antibacterial activity against methicillin-resistant Staphylococcus aureus 171 clinical isolate assessed as bacterial growth inhibition incubated for 24 hrs by CLSI based broth microdilution method; assay type: functional
[8] = system: Staphylococcus aureus; experiment: Antibacterial activity against methicillin-resistant Staphylococcus aureus 575 clinical isolate assessed as bacterial growth inhibition incubated for 24 hrs by CLSI based broth microdilution method; assay type: functional
[9] = system: Enterococcus; experiment: Antibacterial activity against vancomycin-resistant Enterococcus 80 clinical isolate assessed as bacterial growth inhibition incubated for 24 hrs by CLSI based broth microdilution method; assay type: functional
[10] = system: Pseudomonas aeruginosa; experiment: Antibacterial activity against multidrug-resistant Pseudomonas aeruginosa 126 clinical isolate assessed as bacterial growth inhibition incubated for 24 hrs by CLSI based broth microdilution method; assay type: functional
[11] = system: Klebsiella pneumoniae; experiment: Antibacterial activity against multidrug-resistant Klebsiella pneumoniae 893 clinical isolate assessed as bacterial growth inhibition incubated for 24 hrs by CLSI based broth microdilution method; assay type: functional
[12] = system: Acinetobacter baumannii; experiment: Antibacterial activity against carbapenem-resistant Acinetobacter baumannii 882 clinical isolate assessed as bacterial growth inhibition incubated for 24 hrs by CLSI based broth microdilution method; assay type: functional
[13] = Cytotoxicity against human HepG2 cells incubated for 24 hrs by CCK8 assay; assay type: toxicity, cell-based
[14] = Cytotoxicity against HEK293 cells incubated for 24 hrs by CCK8 assay; assay type: toxicity, cell-based; details: human
[15] = Cytotoxicity against human A549 cells incubated for 24 hrs by CCK8 assay; assay type: toxicity, cell-based
[16] = system: Mesomycoplasma hyopneumoniae; experiment: Anti-mycoplasma activity against Mycoplasma hyopneumoniae J-NCYC10110 assessed as bacterial growth inhibition incubated for 7 days; assay type: functional; details: J-NCYC10110, 168 h, time 7 day
[17] = system: Mesomycoplasma hyopneumoniae; experiment: Anti-mycoplasma activity against Mycoplasma hyopneumoniae LH-NCTC10130 assessed as bacterial growth inhibition incubated for 7 days; assay type: functional; details: time 7 day
[18] = system: Mesomycoplasma hyorhinis; experiment: Anti-mycoplasma activity against Mycoplasma hyorhinis BTS-7-NCTC10130 assessed as bacterial growth inhibition incubated for 7 days; assay type: functional; details: BTS-7-NCTC10130, 168 h, time 7 day
[19] = system: Mycoplasmoides gallisepticum; experiment: Anti-mycoplasma activity against Mycoplasma gallisepticum MG-R-NCTC10115 assessed as bacterial growth inhibition incubated for 7 days; assay type: functional; details: MG-R-NCTC10115, 168 h, time 7 day
[20] = system: Mycoplasmopsis synoviae; experiment: Anti-mycoplasma activity against Mycoplasmopsis synoviae MS-MVU1852-NCTC10124 assessed as bacterial growth inhibition incubated for 7 days; assay type: functional; details: MS-MVU1852-NCTC10124, 168 h, time 7 day
[21] = Toxicity in neutropenic Kunming mouse model infected with methicillin-resistant Staphylococcus aureus ATCC 33591 assessed as survival rate at 5 mg/kg, ip measured after 7 days relative to control; assay type: organism-based; details: in vivo, 168 h, time 7 day
[22] = Toxicity in neutropenic Kunming mouse model infected with methicillin-resistant Staphylococcus aureus ATCC 33591 assessed as survival rate at 10 mg/kg, ip measured after 7 days relative to control; assay type: organism-based; details: in vivo, 168 h, time 7 day
[23] = Toxicity in neutropenic Kunming mouse model infected with methicillin-resistant Staphylococcus aureus ATCC 33591 assessed as survival rate at 20 mg/kg, ip measured after 7 days relative to control; assay type: organism-based; details: in vivo, 168 h, time 7 day
[24] = system: Staphylococcus aureus; experiment: Antibacterial activity against methicillin-resistant Staphylococcus aureus ATCC 33591 infected in neutropenic Kunming mouse model administered intraperitoneally measured after 7 days; assay type: functional; details: ATCC 33591, 168 h, route ip, time 7 day
[25] = system: Staphylococcus aureus; experiment: Antibacterial activity against methicillin-resistant Staphylococcus aureus ATCC 33591 infected in neutropenic Kunming mouse model assessed as bacterial load reduction in lung at 10 to 20 mg/kg, ip measured after 2 days; assay type: functional, organism-based; details: dose 10-20 mg/kg, time 2.0 day
[26] = system: Staphylococcus aureus; experiment: Antibacterial activity against methicillin-resistant Staphylococcus aureus ATCC 33591 infected in neutropenic Kunming mouse model assessed as bacterial load reduction in kidney at 10 to 20 mg/kg, ip measured after 2 days; assay type: functional, organism-based; details: dose 10-20 mg/kg, time 2.0 day
[27] = system: Staphylococcus aureus; experiment: Antibacterial activity against methicillin-resistant Staphylococcus aureus ATCC 33591 infected in neutropenic Kunming mouse model assessed as bacterial load reduction in liver at 10 to 20 mg/kg, ip measured after 2 days; assay type: functional, organism-based; details: dose 10-20 mg/kg, time 2.0 day
[28] = system: Staphylococcus aureus; experiment: Antibacterial activity against methicillin-resistant Staphylococcus aureus ATCC 33591 infected in neutropenic Kunming mouse model assessed as reduction in infection-induced inflammatory cell inflammation in lung at 10 mg/kg, ip measured after 7 days; assay type: functional, organism-based; details: time 7.0 day
[29] = system: Staphylococcus aureus; experiment: Antibacterial activity against methicillin-resistant Staphylococcus aureus ATCC 33591 infected in neutropenic Kunming mouse model assessed as reduction in infection-induced inflammatory cell inflammation in kidney at 10 mg/kg, ip measured after 7 days; assay type: functional, organism-based; details: time 7.0 day
[30] = system: Staphylococcus aureus; experiment: Antibacterial activity against methicillin-resistant Staphylococcus aureus ATCC 33591 infected in neutropenic Kunming mouse model assessed as reduction in infection-induced inflammatory cell inflammation in liver at 10 mg/kg, ip measured after 7 days; assay type: functional, organism-based; details: time 7.0 day

| SMILES | MIC [1] | MIC [2] | MIC [3] | MIC [4] | MIC [5] | MIC [6] | MIC [7] | MIC [8] | MIC [9] | MIC [10] | MIC [11] | MIC [12] | CC50 at 24 h [13] | CC50 at 24 h [14] | CC50 at 24 h [15] | also measured |
| --- | --- | --- | --- | --- | --- | --- | --- | --- | --- | --- | --- | --- | --- | --- | --- | --- |
| C=C[C@]1(C)C[C@@H](OC(=O)COC(=O)/C=C/c2cccnc2)[C@]2(C)[C@H](C)CC[C@]3(CCC(=O)[C@H]32)[C@@H](C)[C@@H]1O | 2 µg/mL (≈ 3.92 µM) | 2 µg/mL (≈ 3.92 µM) | 8 µg/mL (≈ 15.7 µM) | 16 µg/mL (≈ 31.4 µM) | 16 µg/mL (≈ 31.4 µM) | 32 µg/mL (≈ 62.8 µM) | 32 µg/mL (≈ 62.8 µM) | 64 µg/mL (≈ 126 µM) | 32 µg/mL (≈ 62.8 µM) | 16 µg/mL (≈ 31.4 µM) | 64 µg/mL (≈ 126 µM) | > 128 µg/mL | 80.6 µM | 28.6 µM | 63.4 µM |  |
| C=C[C@]1(C)C[C@@H](OC(=O)COC(=O)/C=C/c2ccc([N+](=O)[O-])cc2)[C@]2(C)[C@H](C)CC[C@]3(CCC(=O)[C@H]32)[C@@H](C)[C@@H]1O | 2 µg/mL (≈ 3.61 µM) | 8 µg/mL (≈ 14.4 µM) | 2 µg/mL (≈ 3.61 µM) | 4 µg/mL (≈ 7.22 µM) | 32 µg/mL (≈ 57.8 µM) | 64 µg/mL (≈ 116 µM) | 16 µg/mL (≈ 28.9 µM) | 16 µg/mL (≈ 28.9 µM) | 8 µg/mL (≈ 14.4 µM) | 64 µg/mL (≈ 116 µM) | 128 µg/mL (≈ 231 µM) | 128 µg/mL (≈ 231 µM) | > 200 µM | > 200 µM | > 200 µM |  |
| C=C[C@]1(C)C[C@@H](OC(=O)CSCCN(CC)CC)[C@]2(C)[C@H](C)CC[C@]3(CCC(=O)[C@H]32)[C@@H](C)[C@@H]1O [TIAMULIN] | 16 µg/mL (≈ 32.4 µM) | 64 µg/mL (≈ 130 µM) | > 128 µg/mL | 128 µg/mL (≈ 259 µM) | 64 µg/mL (≈ 130 µM) | 64 µg/mL (≈ 130 µM) |  |  |  |  |  |  |  |  |  | MIC [16]: 0.03 µg/mL (≈ 0.0608 µM); MIC ([17]; Mesomycoplasma hyopneumoniae, LH-NCTC10130, 168 h, read-out: MIC): 0.015 µg/mL (≈ 0.0304 µM); MIC [18]: 0.03 µg/mL (≈ 0.0608 µM); MIC [19]: 0.125 µg/mL (≈ 0.253 µM); MIC [20]: 2 µg/mL (≈ 4.05 µM) |
| C=C[C@]1(C)C[C@@H](OC(=O)CSC(C)(C)CNC(=O)[C@H](N)C(C)C)[C@]2(C)[C@H](C)CC[C@]3(CCC(=O)[C@H]32)[C@@H](C)[C@@H]1O [VALNEMULIN] | 64 µg/mL (≈ 113 µM) | 4 µg/mL (≈ 7.08 µM) | 2 µg/mL (≈ 3.54 µM) | > 128 µg/mL | 2 µg/mL (≈ 3.54 µM) | 2 µg/mL (≈ 3.54 µM) | 128 µg/mL (≈ 227 µM) | 128 µg/mL (≈ 227 µM) | 128 µg/mL (≈ 227 µM) | 64 µg/mL (≈ 113 µM) | 128 µg/mL (≈ 227 µM) | 64 µg/mL (≈ 113 µM) | 37.3 µM | 31.1 µM | 46.2 µM | MIC [16]: 0.001 µg/mL (≈ 0.00177 µM); MIC [17]: 0.3 10^-4 ug/ml; MIC [18]: 0.001 µg/mL (≈ 0.00177 µM); MIC [19]: 0.001 µg/mL (≈ 0.00177 µM); MIC [20]: 0.015 µg/mL (≈ 0.0266 µM); Survival [21]: 20%; Survival [22]: 40%; Survival [23]: 70%; ED50 [24]: 14 mg/kg; Activity [25]: Active; Activity [26]: Active; Activity [27]: Active; Activity [28]: inactive; Activity [29]: inactive; Activity [30]: inactive |
| C=C[C@]1(C)C[C@@H](OC(=O)COC(=O)/C=C/c2cccc(C#N)c2)[C@]2(C)[C@H](C)CC[C@]3(CCC(=O)[C@H]32)[C@@H](C)[C@@H]1O | 2 µg/mL (≈ 3.75 µM) | 2 µg/mL (≈ 3.75 µM) | 8 µg/mL (≈ 15 µM) | 16 µg/mL (≈ 30 µM) | 64 µg/mL (≈ 120 µM) | 128 µg/mL (≈ 240 µM) | 32 µg/mL (≈ 60 µM) | 64 µg/mL (≈ 120 µM) | 16 µg/mL (≈ 30 µM) | 128 µg/mL (≈ 240 µM) | 128 µg/mL (≈ 240 µM) | > 128 µg/mL | 78.5 µM | 29.2 µM | > 200 µM |  |
| C=C[C@]1(C)C[C@@H](OC(=O)COC(=O)/C=C/c2cccc(Cl)c2)[C@]2(C)[C@H](C)CC[C@]3(CCC(=O)[C@H]32)[C@@H](C)[C@@H]1O | 8 µg/mL (≈ 14.7 µM) | 16 µg/mL (≈ 29.5 µM) | 32 µg/mL (≈ 58.9 µM) | 32 µg/mL (≈ 58.9 µM) | 64 µg/mL (≈ 118 µM) | 128 µg/mL (≈ 236 µM) |  |  |  |  |  |  |  |  |  |  |
| C=C[C@]1(C)C[C@@H](OC(=O)COC(=O)/C=C/c2cc(Br)ccc2F)[C@]2(C)[C@H](C)CC[C@]3(CCC(=O)[C@H]32)[C@@H](C)[C@@H]1O | 64 µg/mL (≈ 106 µM) | 16 µg/mL (≈ 26.4 µM) | 32 µg/mL (≈ 52.8 µM) | 64 µg/mL (≈ 106 µM) | 64 µg/mL (≈ 106 µM) | 128 µg/mL (≈ 211 µM) |  |  |  |  |  |  |  |  |  |  |
